Laboratory results as given in PubChem BioAssay AID1919006 (Molecular Pharmacology Branch, DTP, NCI, 2023).
pIC50: −log10 of the molar value.

Test system: 885512-296-R-J2-PDC complex spheroid growth, % test/control
Assay: Anticancer human tumor 885512-296-R-J2-PDC patient-derived breast carcinoma cell line growth inhibition [AhR]
Conditions: for pIC50: curve of first compound; for viability, T/C: stronger effect = lower value
Procedure, shortened: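 Agents were dosed in half-log steps down from roughly clinical Cmax, or from 10 microM where Cmax was unknown, alone and with AhR antagonists. Read-out: percent test/control growth of tumor spheroids containing HUVEC and MSC stromal cells.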

[1] = second compound 0.1 µM, first compound 0.00949 µM
[2] = second compound 0.1 µM, first compound 0.03 µM
[3] = second compound 0.1 µM, first compound 0.0949 µM
[4] = second compound 0.1 µM, first compound 0.3 µM
[5] = second compound 0.316 µM, first compound 0.00949 µM
[6] = second compound 0.316 µM, first compound 0.03 µM
[7] = second compound 0.316 µM, first compound 0.0949 µM
[8] = second compound 0.316 µM, first compound 0.3 µM
[9] = second compound 1 µM, first compound 0.00949 µM
[10] = second compound 1 µM, first compound 0.03 µM
[11] = second compound 1 µM, first compound 0.0949 µM
[12] = second compound 1 µM, first compound 0.3 µM
[13] = second compound 3.16 µM, first compound 0.00949 µM
[14] = second compound 3.16 µM, first compound 0.03 µM
[15] = second compound 3.16 µM, first compound 0.0949 µM
[16] = second compound 3.16 µM, first compound 0.3 µM
[17] = second compound 10 µM, first compound 0.00949 µM
[18] = second compound 10 µM, first compound 0.03 µM
[19] = second compound 10 µM, first compound 0.0949 µM
[20] = second compound 10 µM, first compound 0.3 µM
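Also: spheroids exposed to compounds for seven days.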

Nc1ccccc1NC(=O)c1ccc(CNC(=O)OCc2cccnc2)cc1 + CC(CO)NC(=O)c1cc(-c2ccc(Cl)cc2)nn(-c2cnn(C)c2)c1=O
pIC50 (second compound 0.1 µM): 6.16 | pIC50 (second compound 0.316 µM): 6.21 | pIC50 (second compound 1 µM): 6.15 | pIC50 (second compound 3.16 µM): 6.23 | pIC50 (second compound 10 µM): 6.34 | viability, T/C (second compound 0.1 µM, first compound 0.0316 µM): 91.9% | viability, T/C (second compound 0.1 µM, first compound 0.1 µM): 76.4% | viability, T/C (second compound 0.1 µM, first compound 0.316 µM): 61.9% | viability, T/C (second compound 0.1 µM, first compound 1 µM): 42% | viability, T/C (second compound 0.1 µM, first compound 3.16 µM): 31.8% | viability, T/C (second compound 0.1 µM, first compound 10 µM): 13% | viability, T/C (second compound 0.316 µM, first compound 0.0316 µM): 85.1% | viability, T/C (second compound 0.316 µM, first compound 0.1 µM): 70.3% | viability, T/C (second compound 0.316 µM, first compound 0.316 µM): 62.2% | viability, T/C (second compound 0.316 µM, first compound 1 µM): 43.4% | viability, T/C (second compound 0.316 µM, first compound 3.16 µM): 24.6% | viability, T/C (second compound 0.316 µM, first compound 10 µM): 11.6% | viability, T/C (second compound 1 µM, first compound 0.0316 µM): 92.8% | viability, T/C (second compound 1 µM, first compound 0.1 µM): 80.2% | viability, T/C (second compound 1 µM, first compound 0.316 µM): 58.8% | viability, T/C (second compound 1 µM, first compound 1 µM): 44% | viability, T/C (second compound 1 µM, first compound 3.16 µM): 32.6% | viability, T/C (second compound 1 µM, first compound 10 µM): 11.6% | viability, T/C (second compound 3.16 µM, first compound 0.0316 µM): 85.4% | viability, T/C (second compound 3.16 µM, first compound 0.1 µM): 78.6% | viability, T/C (second compound 3.16 µM, first compound 0.316 µM): 59% | viability, T/C (second compound 3.16 µM, first compound 1 µM): 36.8% | viability, T/C (second compound 3.16 µM, first compound 3.16 µM): 31.4% | viability, T/C (second compound 3.16 µM, first compound 10 µM): 9.96% | viability, T/C (second compound 10 µM, first compound 0.0316 µM): 82.6% | viability, T/C (second compound 10 µM, first compound 0.1 µM): 74.2% | viability, T/C (second compound 10 µM, first compound 0.316 µM): 55.5% | viability, T/C (second compound 10 µM, first compound 1 µM): 34% | viability, T/C (second compound 10 µM, first compound 3.16 µM): 24.1% | viability, T/C (second compound 10 µM, first compound 10 µM): 6.25%

CCc1c2c(nc3ccc(O)cc13)-c1cc3c(c(=O)n1C2)COC(=O)[C@]3(O)CC + Cc1cncc(-c2nc(NCCc3c[nH]c4ccccc34)c3ncn(C(C)C)c3n2)c1
pIC50 (second compound 0.1 µM): > 9.02 | pIC50 (second compound 0.316 µM): > 9.02 | pIC50 (second compound 1 µM): > 9.02 | pIC50 (second compound 3.16 µM): > 9.02 | pIC50 (second compound 10 µM): > 9.02 | viability, T/C (second compound 0.1 µM, first compound 0.000949 µM): 17.1% | viability, T/C (second compound 0.1 µM, first compound 0.003 µM): 6.62% | viability, T/C [1]: 6.47% | viability, T/C [2]: 4.7% | viability, T/C [3]: 3.05% | viability, T/C [4]: 1.25% | viability, T/C (second compound 0.316 µM, first compound 0.000949 µM): 13.4% | viability, T/C (second compound 0.316 µM, first compound 0.003 µM): 8.06% | viability, T/C [5]: 6.14% | viability, T/C [6]: 3.21% | viability, T/C [7]: 2.78% | viability, T/C [8]: 2.11% | viability, T/C (second compound 1 µM, first compound 0.000949 µM): 13.7% | viability, T/C (second compound 1 µM, first compound 0.003 µM): 10.2% | viability, T/C [9]: 6.69% | viability, T/C [10]: 3.66% | viability, T/C [11]: 3.03% | viability, T/C [12]: 1.71% | viability, T/C (second compound 3.16 µM, first compound 0.000949 µM): 14.3% | viability, T/C (second compound 3.16 µM, first compound 0.003 µM): 9.78% | viability, T/C [13]: 8.43% | viability, T/C [14]: 4.39% | viability, T/C [15]: 2.48% | viability, T/C [16]: 2.2% | viability, T/C (second compound 10 µM, first compound 0.000949 µM): 15.4% | viability, T/C (second compound 10 µM, first compound 0.003 µM): 10.6% | viability, T/C [17]: 5.11% | viability, T/C [18]: 2.46% | viability, T/C [19]: 1.12% | viability, T/C [20]: 0.78%

CCN(c1cc(-c2ccc(CN3CCOCC3)cc2)cc(C(=O)NCc2c(C)cc(C)[nH]c2=O)c1C)C1CCOCC1 + CC(CO)NC(=O)c1cc(-c2ccc(Cl)cc2)nn(-c2cnn(C)c2)c1=O
pIC50 (second compound 0.1 µM): < 5.52 | pIC50 (second compound 0.316 µM): < 5.52 | pIC50 (second compound 1 µM): < 5.52 | pIC50 (second compound 3.16 µM): < 5.52 | pIC50 (second compound 10 µM): < 5.52 | viability, T/C [1]: 105% | viability, T/C [2]: 96.8% | viability, T/C [3]: 83.3% | viability, T/C [4]: 79.6% | viability, T/C (second compound 0.1 µM, first compound 0.949 µM): 74.9% | viability, T/C (second compound 0.1 µM, first compound 3 µM): 84.1% | viability, T/C [5]: 106% | viability, T/C [6]: 102% | viability, T/C [7]: 93% | viability, T/C [8]: 78.9% | viability, T/C (second compound 0.316 µM, first compound 0.949 µM): 70.5% | viability, T/C (second compound 0.316 µM, first compound 3 µM): 69.1% | viability, T/C [9]: 88.8% | viability, T/C [10]: 111% | viability, T/C [11]: 93.3% | viability, T/C [12]: 82% | viability, T/C (second compound 1 µM, first compound 0.949 µM): 80.3% | viability, T/C (second compound 1 µM, first compound 3 µM): 80.9% | viability, T/C [13]: 88.3% | viability, T/C [14]: 90.3% | viability, T/C [15]: 82.9% | viability, T/C [16]: 86.7% | viability, T/C (second compound 3.16 µM, first compound 0.949 µM): 71.4% | viability, T/C (second compound 3.16 µM, first compound 3 µM): 78.2% | viability, T/C [17]: 94.4% | viability, T/C [18]: 97.5% | viability, T/C [19]: 88% | viability, T/C [20]: 86.4% | viability, T/C (second compound 10 µM, first compound 0.949 µM): 68.5% | viability, T/C (second compound 10 µM, first compound 3 µM): 71.7%

Cc1cncc(-c2nc(NCCc3c[nH]c4ccccc34)c3ncn(C(C)C)c3n2)c1
viability, T/C (compound 0.1 µM): 105% [middle of 20 runs] | viability, T/C (compound 3.16 µM): 60% [middle of 20 runs] | viability, T/C (compound 10 µM): 19.6% [middle of 20 runs] | IC50 (compound alone, run of 08/16/2022): 4.14 µM [middle of 24 runs]
